Measurements: US9512144B2, “Imidazothiazole sufonamides as nematicides” (BAYER CROPSCIENCE AKTIENGESELLSCHAFT, priority 2013, dated 2016)

What was measured:
Type in all cases: in vivo
Meloidogyne incognita [1] = test: Meloidogyne incognita test (MELGIN): sand, salad seeds, gall formation after 14 days; details: application rate 20 ppm, salad seedlings in sand
Method: Solvent: 125.0 parts by weight of acetone To produce a suitable preparation of active compound, 1 part by weight of active compound is mixed with the stated amount of solvent, and the concentrate is diluted with water to the desired concentration. Vessels are filled with sand, a solution of the active ingredient, a suspension containing eggs and larvae of the southern root-knot nematode (Meloidogyne incognita) and salad seeds. The salad seeds germinate and the seedlings grow. Galls develop in the roots. After 14 days the nematicidal activity is determined on the basis of the percentage of gall formation. 100% means that no galls were found; 0% means that the number of galls found on the roots of the treated plants was equal to that in untreated control plants.

Meloidogyne incognita [2] = test: Meloidogyne incognita spray test (MELGIN): leaves of salad and tomato plants sprayed, gall formation 24 days after spraying
Method: Solvent: 7 parts by weight of dimethylformamide Emulsifier: alkylaryl polyglycol ether To produce a suitable preparation of active compound, 1 part by weight of active compound is mixed with the stated amount of solvent and is diluted with water, containing an emulsifier concentration of 1000 ppm, to the desired concentration. Further test concentrations are prepared by dilution with emulsifier containing water. Ammonium sulfate and rape oil methyl ester (RME) in a dosage of 1000 ppm are added to the desired concentration. Salad and tomato plants are treated by being sprayed on the leaves with the preparation of the active compound of the desired concentration, the soil surface is covered by a protection film. 3 days after spraying, a suspension containing eggs and larvae of the southern root-knot nematode (Meloidogyne incognita) is added on the soil surface. Galls develop on the roots. 24 days after spraying, the nematicidal activity is determined on the basis of the percentage of gall formation. 100% means no galls were found; 0% means the number of galls found on the roots of the treated plants was equal to that in untreated control plants. […] Test plant: Tomato, Lycopersicon esculentum Test plant: Salad, Lactuca sativa

Meloidogyne incognita [3] = test: Meloidogyne incognita test: compound solution poured into pots with soil (loamy sand), salad seeds, gall formation after 21 days; details: salad in soil
Method: Solvent: 7 parts by weight of dimethylformamide Emulsifier: 2.5 parts by weight of alkylarylpolyglycolether To produce a suitable preparation of active compound, 1 part by weight of active compound is mixed with the stated amount of solvent and emulsifier and is diluted with water to the desired concentration. In the calculation of the concentration the soil volume has to be included. […] Further test concentrations are prepared by dilution with water. The compound solution is poured into pots filled with soil (loamy sand). A suspension containing eggs and larvae of the southern root-knot nematode (Meloidogyne incognita) is added, salad seeds are spread on the soil surface and covered with quartz sand. The salad seeds germinate and the seedlings grow. Galls develop on the roots. After 21 days the nematicidal activity is determined on the basis of the percentage of gall formation. 100% means no galls were found; 0% means the number of galls found on the roots of the treated plants was equal to that in untreated control plants.

[4] = test plant Salad, Lactuca sativa, leaf spray 100 ppm
[5] = test plant Salad, Lactuca sativa, leaf spray 1000 ppm
[6] = test plant Salad, Lactuca sativa, leaf spray 2500 ppm
[7] = test plant Tomato, Lycopersicon esculentum, leaf spray 100 ppm
[8] = test plant Tomato, Lycopersicon esculentum, leaf spray 1000 ppm
[9] = test plant Tomato, Lycopersicon esculentum, leaf spray 2500 ppm

| Structure (SMILES) | nematicidal activity on the basis of the percentage of gall formation (100% = no galls) (Meloidogyne incognita [1]) [%] | nematicidal activity on the basis of the percentage of gall formation (100% = no galls) (Meloidogyne incognita [2]; [4]) [%] | nematicidal activity on the basis of the percentage of gall formation (100% = no galls) (Meloidogyne incognita [2]; [5]) [%] | nematicidal activity on the basis of the percentage of gall formation (100% = no galls) (Meloidogyne incognita [2]; [6]) [%] | nematicidal activity on the basis of the percentage of gall formation (100% = no galls) (Meloidogyne incognita [2]; [7]) [%] | nematicidal activity on the basis of the percentage of gall formation (100% = no galls) (Meloidogyne incognita [2]; [8]) [%] | nematicidal activity on the basis of the percentage of gall formation (100% = no galls) (Meloidogyne incognita [2]; [9]) [%] | nematicidal activity on the basis of the percentage of gall formation (100% = no galls) (Meloidogyne incognita [3]; application rate 2 ppm) [%] | nematicidal activity on the basis of the percentage of gall formation (100% = no galls) (Meloidogyne incognita [3]; application rate 8 ppm) [%] | nematicidal activity on the basis of the percentage of gall formation (100% = no galls) (Meloidogyne incognita [3]; application rate 4 ppm) [%] |
| --- | --- | --- | --- | --- | --- | --- | --- | --- | --- | --- |
| Cc1c(C(F)(F)F)sc2nc(C(=O)NS(=O)(=O)c3c(Cl)cccc3Cl)cn12 [Example I-1-158] | 90 | 15 | 75 | 80 | 0 | 0 | 50 | 98 |  |  |
| O=C(NS(=O)(=O)c1cc(C(F)(F)F)ccc1Cl)c1cn2cc(C(F)(F)F)sc2n1 [Example I-1-4] | 100 | 0 | 20 | 75 | 25 | 35 | 98 | 97 |  |  |
| COc1ccc(Cl)c(S(=O)(=O)NC(=O)c2cn3c(C)c(C(F)(F)F)sc3n2)c1 [Example I-1-159] | 100 | 25 | 60 | 95 | 0 | 75 | 95 | 95 |  |  |
| O=C(NS(=O)(=O)c1cc2c(cc1Cl)OC(F)(F)O2)c1cn2cc(C(F)(F)F)sc2n1 [Example I-1-12] | 100 |  |  |  |  |  |  |  | 95 |  |
| Cc1c(C(F)(F)F)sc2nc(C(=O)NS(=O)(=O)c3ccccc3Cl)cn12 [Example I-1-154] | 90 |  |  |  |  |  |  |  |  | 99 |
| COc1ccc(Cl)c(S(=O)(=O)NC(=O)c2cn3c(C)c(C(F)(F)C(F)(F)F)sc3n2)c1 [Example I-1-251] | 100 |  |  |  |  |  |  |  | 98 |  |
| Cc1c(C(F)(F)C(F)(F)F)sc2nc(C(=O)NS(=O)(=O)c3c(Cl)cccc3Cl)cn12 [Example I-1-254] | 100 |  |  |  |  |  |  |  | 85 |  |
| COc1ccc(Br)c(S(=O)(=O)NC(=O)c2cn3cc(C(F)(F)C(F)(F)F)sc3n2)c1 [Example I-1-243] | 100 |  |  |  |  |  |  |  | 95 |  |
